Common to all, as to assay type: physicochemical
A short description of series [1]: Exploration of product stability in alkaline conditions. The note with it: for Assay: 15~25° C. The text has this: Exploration of Product Stability in Alkaline Conditions.
Series [2] in a line: Exploration of solubility: 300 mg slurry in solvent (10 V) at 15~20° C. Particulars: for solubility: 15 °C, organic solvent or mixture, thermodynamic from solid; for solubility / Solubility (mg/mL): 300 mg slurry at 15~20° C. The text has this:
Exploration of Step 3: Amide Formation. Exploration of Product Solubility.
Exploration of the Solubility of 4 in Various Solvents.

A short description of series [3]: Exploration of solvent for filtration: 5a slurry in solvent. The note with it: 500 mg slurry, HCl (EtOH) charged, 15˜25° C. for 20 h. As for the experimental part: Exploration of Solvent for Filtration.
Experiments were performed 15˜25° C. for 20 h.

Converted amounts (≈) assume the structure as drawn. Structures can show the parent of a compound that is named as a salt.

One may read the solubility as the dissolved amount per volume that the medium holds. In the case of `COC(=O)CC[C@H](NC(=O)c1ccc(-n2ccnn2)cc1)C(=O)N1CCN(C)CC1` [Compound 3, methyl (4S)-4-[4-(1H-1,2,3-triazol-1-yl)benzoylamino]-5-(4-methylpiperazin-1-yl)-5-oxopentanoate], the Assay was found to be 1.0 g in series [1] (1.0 g, pH 9-10 with 6M LiOH aqueous solution, 0 h); 1.0 g in series [1] (1.0 g, pH 9-10 with 6M LiOH aqueous solution, +10 h); 1.0 g in series [1] (1.0 g, pH 9-10 with 6M LiOH aqueous solution, +24 h (first)); 1.0 g in series [1] (1.0 g, pH 9-10 with 6M LiOH aqueous solution, +24 h (second)); 1.0 g in series [1] (1.0 g, pH 9-10 with 10 wt. % K2CO3 aqueous solution, 0 h); 0.90 g in series [1] (1.0 g, pH 9-10 with 10 wt. % K2CO3 aqueous solution, +10 h). In addition, the Assay in series [1] (1.0 g, pH 9-10 with 10 wt. % K2CO3 aqueous solution, +24 h (first)) is 0.87 g; in series [1] (1.0 g, pH 9-10 with 10 wt. % K2CO3 aqueous solution, +24 h (second)), 0.87 g; in series [1] (1.0 g, pH 9-10 with 10 wt. % Na2CO3 aqueous solution, 0 h) it was 1.0 g; in series [1] (1.0 g, pH 9-10 with 10 wt. % Na2CO3 aqueous solution, +10 h), 0.99 g; in series [1] (1.0 g, pH 9-10 with 10 wt. % Na2CO3 aqueous solution, +24 h (first)) it was 0.97 g; in series [1] (1.0 g, pH 9-10 with 10 wt. % Na2CO3 aqueous solution, +24 h (second)), 0.99 g. For the same compound, the Assay in series [1] (1.0 g, pH 9-10 with 10 wt. % NaOH aqueous solution, 0 h) is given as 1.0 g; in series [1] (1.0 g, pH 9-10 with 10 wt. % NaOH aqueous solution, +10 h), 1.0 g; in series [1] (1.0 g, pH 9-10 with 10 wt. % NaOH aqueous solution, +24 h (first)), 1.0 g; in series [1] (1.0 g, pH 9-10 with 10 wt. % NaOH aqueous solution, +24 h (second)) it was 1.0 g; in series [1] (1.1 g, pH 10-11 with NaOH aqueous solution (6N), 0 h), 0.7 g; in series [1] (1.1 g, pH 10-11 with NaOH aqueous solution (6N), +7 h (after +20 h)), 0.4 g. Moreover, the Assay in series [1] (1.1 g, pH 10-11 with NaOH aqueous solution (6N), +20 h) came out at 0.5 g; in series [1] (1.1 g, pH 10-11 with NaOH aqueous solution (6N), +24 h (first, after +7 h)), 0.3 g; in series [1] (1.1 g, pH 10-11 with NaOH aqueous solution (6N), +24 h (second)), 0.2 g. For the same compound, the “stability (conclusion)” value is listed as “relatively instable” in series [1] (in the presence of K2CO3); “not stable” in series [1] (pH>10 in basic aqueous solution); “relatively stable” in series [1] (weak basic aqueous solution, pH=9-10). In addition, the solubility in series [2] (Acetonitrile (10 V)) was determined as 29500 µg/mL (≈ 71.2 mM); in series [2] (EtOAc (10 V)), 9000 µg/mL (≈ 21.7 mM); in series [2] (EtOH (10 V)), 22500 µg/mL (≈ 54.3 mM); in series [2] (IPA (10 V)), 14100 µg/mL (≈ 34 mM); in series [2] (IPAc (10 V)) it was 4800 µg/mL (≈ 11.6 mM); in series [2] (MTBE (10 V)) it was 600 µg/mL (≈ 1.45 mM). In addition, in series [2] (THF (10 V)), the solubility is 84200 µg/mL (≈ 203 mM). The “Solubility (mg/mL)” value is on record as “Dissolved completely” in series [2] (DCM (10 V)), “insoluble” in series [2] (Heptane (10 V)) and “Dissolved completely” in series [2] (MeOH (10 V)). Moreover, the “solubility (conclusion)” value in series [2] (in DCM, THF or MeOH) was “good solubility”.
With `CN1CCN(C(=O)[C@H](CCC(=O)O)NC(=O)c2ccc(-n3ccnn3)cc2)CC1` [Compound 4, (4S)-4-[4-(1H-1,2,3-triazol-1-yl)benzoylamino]-5-(4-methylpiperazin-1-yl)-5-oxopentanoic Acid], the solubility in series [2] (Acetonitrile (10 V)) was found to be 400 µg/mL (≈ 0.999 mM); in series [2] (DCM (10 V)), 1000 µg/mL (≈ 2.5 mM); in series [2] (EtOAc (10 V)) it was 400 µg/mL (≈ 0.999 mM); in series [2] (EtOH (10 V)), 4000 µg/mL (≈ 9.99 mM); in series [2] (IPA (10 V)), 900 µg/mL (≈ 2.25 mM); in series [2] (IPAc (10 V)), 1000 µg/mL (≈ 2.5 mM). Further, the solubility in series [2] (MeOH (10 V)) came to 37000 µg/mL (≈ 92.4 mM); in series [2] (THF (10 V)), 1200 µg/mL (≈ 3 mM). The “stability in MeOH (conclusion of the solubility table)” value in series [2] (MeOH) is “high stability”. Besides, the “solubility (conclusion)” value in series [2] (other tested solvents (than MeOH)) was “lower solubility”.
Take `CCCCCCCCCCCCSC(=O)CC[C@H](NC(=O)c1ccc(-n2ccnn2)cc1)C(=O)N1CCN(C)CC1` [Compound 5a, dodecyl (4S)-4-[4-(1H-1,2,3-triazol-1-yl)benzoylamino]-5-(4-methyl-piperazin-1-yl)-5-oxopentanethioate Hydrochloride Salt]: the “Result (solubility)” value in series [3] (DMSO (20 V)) and in series [3] (NMP (20 V)) was “Soluble” each time.

These data come from patent US11390590B2, “Methods and processes for the preparation of KDM1A inhibitors” (Imago Biosciences, Inc., priority 2016, dated 2022).
